Source: BindingDB's records for doi:10.7270/Q2959G0B (Nmmlsc, 2009)
pEC50: −log10 of the molar value.

Biological target: Ras-related C3 botulinum toxin substrate 1 (Mus musculus, UniProt P63001)
Assay: Rac1 wildtype GTP binding inhibitors, SAR follow-up, biochemical, pyrazoline analogs, multiplex, flow cytometry, Ki (AID 2055)
Details: inactive by the depositor's call

| Structure (SMILES) | pEC50 |
| --- | --- |
| Cc1onc(-c2ccccc2)c1-c1ccc(S(N)(=O)=O)cc1 | 4.52 |
| O=[N+]([O-])c1ccc([N+]2=N[C-](c3ccccc3)CC2c2ccccc2)cc1 (configuration not stated) | 4.52 |
| Brc1ccc(N2N=C(c3ccccc3)CC2c2ccccc2)cc1 (configuration not stated) | 5.02 |
| COc1ccccc1C1CC(c2ccccc2)=NN1c1ccccc1 (configuration not stated) | 4.52 |
| Clc1cccc(N2N=C(c3ccccc3)CC2c2ccccc2)c1 (configuration not stated) | 4.52 |
| Clc1ccc(N2N=C(c3ccccc3)CC2c2ccccc2)cc1 (configuration not stated) | 4.52 |
| CC(=O)Oc1ccc(C2=NN(c3ccccc3)C(c3ccccc3)C2)cc1 (configuration not stated) | 5.25 |
| O=C(O)c1ccc(N2N=C(c3ccccc3)CC2c2ccccc2)cc1 (configuration not stated) | 4.26 |
| COc1ccc(C2=NN(c3ccccc3)C(c3ccccc3C(F)(F)F)C2)cc1 (configuration not stated) | 4.52 |
| O=S(=O)(c1ccc(N2N=C(c3ccccc3)CC2c2ccccc2)cc1)C(F)F (configuration not stated) | 4.52 |
| NS(=O)(=O)c1ccc(N2N=C(c3ccc(Cl)cc3)CC2c2ccccc2)cc1 (configuration not stated) | 4.52 |
| CCc1ccc(C2=NN(c3ccc(S(N)(=O)=O)cc3)C(c3ccc(F)cc3)C2)cc1 (configuration not stated) | 4.52 |
| CN(C)c1ccc(C2C[C-](c3ccccc3)N=[N+]2c2ccc([N+](=O)[O-])cc2)cc1 (configuration not stated) | 4.69 |
| COc1ccc(C2CC(c3ccc(F)cc3)=NN2c2cccc(F)c2)cc1OC (configuration not stated) | 7.57 |
| COc1ccc(C2CC(c3ccccc3)=NN2c2ccc(Cl)c(C(=O)O)c2)cc1 (configuration not stated) | 4.52 |
| COc1ccc(C2CC(c3ccc(Cl)cc3)=NN2c2ccc(S(N)(=O)=O)cc2)cc1 (configuration not stated) | 4.52 |
| Cc1ccc(C2CC(c3ccccc3)=NN2c2ccc(S(N)(=O)=O)cc2)cc1 (configuration not stated) | 4.52 |
| Cc1cccc(C2CC(c3ccccc3)=NN2c2ccc(S(N)(=O)=O)cc2)c1 (configuration not stated) | 4.52 |
| COc1ccc(C2CC(c3ccccc3OC)=NN2c2ccc(S(N)(=O)=O)cc2)cc1 (configuration not stated) | 4.52 |
| COc1ccc(C2CC(c3ccc(C)cc3)=NN2c2ccc(S(N)(=O)=O)cc2)cc1 (configuration not stated) | 4.52 |
| COc1ccc(C2CC(c3cccc(C(F)(F)F)c3)=NN2c2ccc(S(N)(=O)=O)cc2)cc1 (configuration not stated) | 4.52 |
| COc1ccc(C2CC(c3cccc(N(C)C)c3)=NN2c2ccc(S(N)(=O)=O)cc2)cc1 (configuration not stated) | 4.52 |
| COc1ccc(C2CC(c3cccnc3)=NN2c2ccc(S(N)(=O)=O)cc2)cc1 (configuration not stated) | 4.52 |
| COc1ccc(C2CC(c3ccncc3)=NN2c2ccc(S(N)(=O)=O)cc2)cc1 (configuration not stated) | 4.52 |

| Structure (SMILES) | pEC50 |
| --- | --- |
| Fc1ccccc1C1CC(c2ccc(Br)cc2)=NN1c1ccc(Br)cc1 (configuration not stated) [2,5-bis(4-bromophenyl)-3-(2-fluorophenyl)-3,4-dihydropyrazole] | 4.52 |
| COc1ccc(C2CC(c3ccc(F)cc3)=NN2c2cc(Cl)ccc2Cl)cc1 (configuration not stated) [2-(2,5-dichlorophenyl)-5-(4-fluorophenyl)-3-(4-methoxyphenyl)-3,4-dihydropyrazole] | 7.05 |
| COc1ccc(C2=NN(c3ccc(Cl)c(Cl)c3)C(c3ccc(OC)cc3)C2)cc1 (configuration not stated) [2-(3,4-dichlorophenyl)-3,5-bis(4-methoxyphenyl)-3,4-dihydropyrazole] | 4.52 |
| Fc1ccc(C2=NN(c3cccc(Br)c3)C(c3ccccc3)C2)cc1 (configuration not stated) [2-(3-bromophenyl)-5-(4-fluorophenyl)-3-phenyl-3,4-dihydropyrazole] | 4.52 |
| COc1ccc(C2=NN(c3cccc(F)c3)C(c3ccc(OC)cc3)C2)cc1 (configuration not stated) [2-(3-fluorophenyl)-3,5-bis(4-methoxyphenyl)-3,4-dihydropyrazole] | 4.52 |
| COc1ccc(C2CC(c3ccccc3)=NN2c2ccc(Cl)c(C(=O)O)c2)cc1OC (configuration not stated) [2-chloro-5-[3-(3,4-dimethoxyphenyl)-5-phenyl-3,4-dihydropyrazol-2-yl]benzoic acid] | 4.52 |
| COc1ccc(C2=NN(c3cccc(F)c3)C(c3ccc(Cl)cc3)C2)cc1 (configuration not stated) [3-(4-chlorophenyl)-2-(3-fluorophenyl)-5-(4-methoxyphenyl)-3,4-dihydropyrazole] | 4.52 |
| COc1ccc(C2C[C-](c3ccccc3)N=[N+]2c2ccc([N+](=O)[O-])cc2)cc1 (configuration not stated) [3-(4-methoxyphenyl)-2-(4-nitrophenyl)-5-phenyl-3,4-dihydropyrazole] | 4.52 |
| COc1ccc(C2CC(c3ccccc3)=NN2c2cccc(S(N)(=O)=O)c2)cc1 (configuration not stated) [3-[3-(4-methoxyphenyl)-5-phenyl-3,4-dihydropyrazol-2-yl]benzenesulfonamide] | 4.52 |
| CN(C)c1ccc(C2CC(c3ccccc3)=NN2c2ccccc2)cc1 (configuration not stated) [4-(2,5-diphenyl-3,4-dihydropyrazol-3-yl)-N,N-dimethylaniline] | 4.52 |
| NS(=O)(=O)c1ccc(N2N=C(c3ccccc3)CC2c2ccccc2)cc1 (configuration not stated) [4-(3,5-diphenyl-3,4-dihydropyrazol-2-yl)benzenesulfonamide] | 4.52 |
| COc1ccc(C2=NN(c3ccc(S(N)(=O)=O)cc3)C(c3ccc(OC)cc3)C2)cc1 (configuration not stated) [4-[3,5-bis(4-methoxyphenyl)-3,4-dihydropyrazol-2-yl]benzenesulfonamide] | 4.52 |
| NS(=O)(=O)c1ccc(N2N=C(c3ccccc3)CC2c2ccccc2Br)cc1 (configuration not stated) [4-[3-(2-bromophenyl)-5-phenyl-3,4-dihydropyrazol-2-yl]benzenesulfonamide] | 4.52 |
| COc1ccccc1C1CC(c2ccccc2)=NN1c1ccc(S(N)(=O)=O)cc1 (configuration not stated) [4-[3-(2-methoxyphenyl)-5-phenyl-3,4-dihydropyrazol-2-yl]benzenesulfonamide] | 4.52 |
| COc1cccc(C2CC(c3ccccc3)=NN2c2ccc(S(N)(=O)=O)cc2)c1 (configuration not stated) [4-[3-(3-methoxyphenyl)-5-phenyl-3,4-dihydropyrazol-2-yl]benzenesulfonamide] | 4.52 |
| NS(=O)(=O)c1ccc(N2N=C(c3ccccc3)CC2c2ccc(Cl)cc2)cc1 (configuration not stated) [4-[3-(4-chlorophenyl)-5-phenyl-3,4-dihydropyrazol-2-yl]benzenesulfonamide] | 4.52 |
| COc1ccc(C2CC(c3ccc(C(F)(F)F)cc3)=NN2c2ccc(S(N)(=O)=O)cc2)cc1 (configuration not stated) [4-[3-(4-methoxyphenyl)-5-[4-(trifluoromethyl)phenyl]-3,4-dihydropyrazol-2-yl]benzenesulfonamide] | 4.52 |
| COc1ccc(C2CC(C)=NN2c2ccc(S(N)(=O)=O)cc2)cc1 (configuration not stated) [4-[3-(4-methoxyphenyl)-5-methyl-3,4-dihydropyrazol-2-yl]benzenesulfonamide] | 4.52 |
| COc1ccc(C2CC(c3ccsc3)=NN2c2ccc(S(N)(=O)=O)cc2)cc1 (configuration not stated) [4-[3-(4-methoxyphenyl)-5-thiophen-3-yl-3,4-dihydropyrazol-2-yl]benzenesulfonamide] | 4.52 |
| COc1ccc(C2CC(c3ccccc3Cl)=NN2c2ccc(S(N)(=O)=O)cc2)cc1 (configuration not stated) [4-[5-(2-chlorophenyl)-3-(4-methoxyphenyl)-3,4-dihydropyrazol-2-yl]benzenesulfonamide] | 4.52 |
| COc1ccc(C2CC(c3cccc(F)c3)=NN2c2ccc(S(N)(=O)=O)cc2)cc1 (configuration not stated) [4-[5-(3-fluorophenyl)-3-(4-methoxyphenyl)-3,4-dihydropyrazol-2-yl]benzenesulfonamide] | 4.52 |
| COc1ccc(C2CC(c3cccc(OC)c3)=NN2c2ccc(S(N)(=O)=O)cc2)cc1 (configuration not stated) [4-[5-(3-methoxyphenyl)-3-(4-methoxyphenyl)-3,4-dihydropyrazol-2-yl]benzenesulfonamide] | 4.52 |
| NS(=O)(=O)c1ccc(N2N=C(c3ccc(Br)cc3)CC2c2ccc(F)cc2)cc1 (configuration not stated) [4-[5-(4-bromophenyl)-3-(4-fluorophenyl)-3,4-dihydropyrazol-2-yl]benzenesulfonamide] | 7.85 |
